# Tested on: MV-4-11 cells
# Experiment: Gene expression microarray analysis (Affymetrix PrimeView) and GSEA
# Type: cell-based, human
# Parameters: RFU PODN (11730768_x_at) / Fold change /veh PODN (11730768_x_at) / RFU LINC00158 (11744669_a_at) / Fold change /veh LINC00158 (11744669_a_at) / RFU DUSP10 (11751237_a_at) / Fold change /veh DUSP10 (11751237_a_at) / RFU ID3 (11757404_x_at) / Fold change /veh ID3 (11757404_x_at) / RFU PLEKHG5 (11737974_s_at) / Fold change /veh PLEKHG5 (11737974_s_at) / RFU LRRC4B (11730491_at) / Fold change /veh LRRC4B (11730491_at) / RFU GIMAP4 (11747438_a_at) / Fold change /veh GIMAP4 (11747438_a_at) / RFU KRT8 (11758183_x_at) / Fold change /veh KRT8 (11758183_x_at) / RFU CNN1 (11734310_a_at) / Fold change /veh CNN1 (11734310_a_at) / RFU VPS37D (11726825_at) / Fold change /veh VPS37D (11726825_at) / RFU C10orf10 (11716522_x_at) / Fold change /veh C10orf10 (11716522_x_at) / RFU KIR2DL2 /// KIR2DL4 /// KIR2DL5A /// KIR2DL5B /// KIR2DS1 /// KIR2DS2 /// KIR2DS3 /// KIR2DS4 /// KIR3DL3 /// KIR3DL3 /// KIR3DS1 (11738374_at) / Fold change /veh KIR2DL2 /// KIR2DL4 /// KIR2DL5A /// KIR2DL5B /// KIR2DS1 /// KIR2DS2 /// KIR2DS3 /// KIR2DS4 /// KIR3DL3 /// KIR3DL3 /// KIR3DS1 (11738374_at) / RFU C1QL1 (11718748_at) / Fold change /veh C1QL1 (11718748_at) / RFU TMPRSS4 (11747572_a_at) / Fold change /veh TMPRSS4 (11747572_a_at) / RFU HAMP (11756126_x_at) / Fold change /veh HAMP (11756126_x_at) / RFU RNFT2 (11725882_a_at) / Fold change /veh RNFT2 (11725882_a_at) / RFU NR4A2 (11747474_a_at) / Fold change /veh NR4A2 (11747474_a_at) / RFU ABCC12 (11746883_a_at) / Fold change /veh ABCC12 (11746883_a_at) / RFU TMEM136 (11760407_x_at) / Fold change /veh TMEM136 (11760407_x_at) / RFU CLDN22 /// WWC2 (11732394_at) / Fold change /veh CLDN22 /// WWC2 (11732394_at) / RFU HLA-DPB1 (11760878_x_at) / Fold change /veh HLA-DPB1 (11760878_x_at) / RFU SPINT1 (11716480_a_at) / Fold change /veh SPINT1 (11716480_a_at) / RFU GAP43 (11754022_s_at) / Fold change /veh GAP43 (11754022_s_at) / RFU A4GNT (11735810_at) / Fold change /veh A4GNT (11735810_at) / RFU PRB3 (11715151_x_at) / Fold change /veh PRB3 (11715151_x_at) / RFU TUBB4B (11761932_at) / Fold change /veh TUBB4B (11761932_at) / RFU CAPN14 (11732068_a_at) / Fold change /veh CAPN14 (11732068_a_at) / RFU TMCC2 (11721928_a_at) / Fold change /veh TMCC2 (11721928_a_at) / RFU IRGQ (11745062_a_at) / Fold change /veh IRGQ (11745062_a_at) / RFU FAM174B (11720279_a_at) / Fold change /veh FAM174B (11720279_a_at) / RFU TMPRSS4 (11748680_a_at) / Fold change /veh TMPRSS4 (11748680_a_at) / RFU FAM212B (11763350_a_at) / Fold change /veh FAM212B (11763350_a_at) / RFU PLEKHG5 (11743358_a_at) / Fold change /veh PLEKHG5 (11743358_a_at) / RFU ZSCAN30 (11745921_a_at) / Fold change /veh ZSCAN30 (11745921_a_at) / RFU CMKLR1 (11741424_a_at) / Fold change /veh CMKLR1 (11741424_a_at) / RFU LOC101060620 /// MAPK8IP1 (11723275_at) / Fold change /veh LOC101060620 /// MAPK8IP1 (11723275_at) / RFU SPTSSB (11747773_x_at) / Fold change /veh SPTSSB (11747773_x_at) / RFU PRSS12 (11739890_at) / Fold change /veh PRSS12 (11739890_at) / RFU BIN1 (11741810_x_at) / Fold change /veh BIN1 (11741810_x_at) / RFU WNT11 (11732464_a_at) / Fold change /veh WNT11 (11732464_a_at) / RFU C10orf10 (11716521_a_at) / Fold change /veh C10orf10 (11716521_a_at) / RFU C5orf56 (11738089_at) / Fold change /veh C5orf56 (11738089_at) / RFU CYB561 (11721691_x_at) / Fold change /veh CYB561 (11721691_x_at) / RFU ANKRD19P (11752326_a_at) / Fold change /veh ANKRD19P (11752326_a_at) / RFU OR2T12 /// OR2T33 /// OR2T8 (11738714_s_at) / Fold change /veh OR2T12 /// OR2T33 /// OR2T8 (11738714_s_at) / RFU VCAN (11748164_a_at) / Fold change /veh VCAN (11748164_a_at) / RFU JSRP1 (11732532_at) / Fold change /veh JSRP1 (11732532_at) / RFU KRTAP10-11 (11738290_x_at) / Fold change /veh KRTAP10-11 (11738290_x_at) / RFU MYO3A (11730013_a_at) / Fold change /veh MYO3A (11730013_a_at) / RFU EBF3 (11725865_a_at) / Fold change /veh EBF3 (11725865_a_at) / RFU CAMK2N1 (11719241_x_at) / Fold change /veh CAMK2N1 (11719241_x_at) / RFU C5orf56 (11738088_a_at) / Fold change /veh C5orf56 (11738088_a_at) / RFU OLFML3 (11715873_a_at) / Fold change /veh OLFML3 (11715873_a_at) / RFU LOC100653217 /// NTM (11731650_a_at) / Fold change /veh LOC100653217 /// NTM (11731650_a_at) / RFU MAPK11 (11762145_a_at) / Fold change /veh MAPK11 (11762145_a_at) / RFU FIZ1 (11724087_x_at) / Fold change /veh FIZ1 (11724087_x_at) / RFU OASL (11726364_x_at) / Fold change /veh OASL (11726364_x_at) / RFU SOX15 (11748057_x_at) / Fold change /veh SOX15 (11748057_x_at) / RFU CD79A (11719716_a_at) / Fold change /veh CD79A (11719716_a_at) / RFU HIST1H1D (11736915_at) / Fold change /veh HIST1H1D (11736915_at) / RFU CASKIN2 (11723855_a_at) / Fold change /veh CASKIN2 (11723855_a_at) / RFU LOC730098 (11760151_x_at) / Fold change /veh LOC730098 (11760151_x_at) / RFU OR4N2 (11742367_at) / Fold change /veh OR4N2 (11742367_at) / RFU PRRT2 (11749266_a_at) / Fold change /veh PRRT2 (11749266_a_at) / RFU SNX32 (11753110_a_at) / Fold change /veh SNX32 (11753110_a_at) / RFU CDHR5 (11726645_a_at) / Fold change /veh CDHR5 (11726645_a_at) / RFU RCAN1 (11760418_a_at) / Fold change /veh RCAN1 (11760418_a_at) / RFU FAM167A (11723789_a_at) / Fold change /veh FAM167A (11723789_a_at) / RFU FAM26E (11764081_at) / Fold change /veh FAM26E (11764081_at) / RFU ISYNA1 (11749810_s_at) / Fold change /veh ISYNA1 (11749810_s_at) / RFU ACY1 (11761880_at) / Fold change /veh ACY1 (11761880_at) / RFU 11764098_at / Fold change /veh 11764098_at / RFU SAMD14 (11745864_x_at) / Fold change /veh SAMD14 (11745864_x_at) / RFU NPB (11741838_a_at) / Fold change /veh NPB (11741838_a_at) / RFU TMPRSS6 (11731388_a_at) / Fold change /veh TMPRSS6 (11731388_a_at) / RFU KRTAP10-2 (11738614_at) / Fold change /veh KRTAP10-2 (11738614_at) / RFU ARHGAP8 /// PRR5-ARHGAP8 (11727945_x_at) / Fold change /veh ARHGAP8 /// PRR5-ARHGAP8 (11727945_x_at) / RFU KRTAP5-7 /// NADSYN1 (11734609_at) / Fold change /veh KRTAP5-7 /// NADSYN1 (11734609_at) / RFU RASL12 (11751679_a_at) / Fold change /veh RASL12 (11751679_a_at) / RFU CDKN2B (11736163_a_at) / Fold change /veh CDKN2B (11736163_a_at) / RFU PRF1 (11729649_at) / Fold change /veh PRF1 (11729649_at) / RFU, ZNF638 /// ZNF638-IT1 / Fold change vs veh, ZNF638 /// ZNF638-IT1 / RFU, PANK3 / Fold change vs veh, PANK3 / RFU, SH3YL1 / Fold change vs veh, SH3YL1 / RFU, ZEB2 / Fold change vs veh, ZEB2 / RFU, NRIP1 / Fold change vs veh, NRIP1 / RFU, PTTG1IP / Fold change vs veh, PTTG1IP / RFU, CAPN2 / Fold change vs veh, CAPN2 / RFU, MED14 / Fold change vs veh, MED14 / RFU, SNORA58 / Fold change vs veh, SNORA58 / RFU, C1orf63 / Fold change vs veh, C1orf63 / RFU, LRRFIP1 / Fold change vs veh, LRRFIP1 / RFU, NDUFAF7 / Fold change vs veh, NDUFAF7 / RFU, SLC12A2 / Fold change vs veh, SLC12A2 / RFU, IBTK / Fold change vs veh, IBTK / RFU, ESF1 / Fold change vs veh, ESF1 / Fold change vs veh, TMEM50B / RFU, TAOK1 / Fold change vs veh, TAOK1 / RFU, ACBD3 / Fold change vs veh, ACBD3 / RFU, TMA16 / Fold change vs veh, TMA16 / RFU, RWDD3 / Fold change vs veh, RWDD3 / RFU, BCAT1 / Fold change vs veh, BCAT1 / RFU, EDEM3 / Fold change vs veh, EDEM3 / RFU, TMEM33 / Fold change vs veh, TMEM33 / RFU, WDR75 / Fold change vs veh, WDR75 / RFU, AHCTF1 / Fold change vs veh, AHCTF1 / RFU, TFRC / Fold change vs veh, TFRC / RFU, ZDHHC17 / Fold change vs veh, ZDHHC17 / RFU, NOM1 / Fold change vs veh, NOM1 / RFU, ARL8B / Fold change vs veh, ARL8B / RFU, ZBTB11 / Fold change vs veh, ZBTB11 / RFU, TAMM41 / Fold change vs veh, TAMM41 / RFU, KIAA1704 /// LOC100996395 / Fold change vs veh, KIAA1704 /// LOC100996395 / RFU, ING1 / Fold change vs veh, ING1 / RFU, TRMT61B / Fold change vs veh, TRMT61B / RFU, FUBP3 / Fold change vs veh, FUBP3 / RFU, TP53 / Fold change vs veh, TP53 / RFU, TNKS2 / Fold change vs veh, TNKS2 / RFU, ZFP14 / Fold change vs veh, ZFP14 / RFU, ACTR2 / Fold change vs veh, ACTR2 / RFU, PPP3R1 / Fold change vs veh, PPP3R1 / RFU, PIK3R1 / Fold change vs veh, PIK3R1 / RFU, HNRNPA1 / Fold change vs veh, HNRNPA1 / RFU, RNF170 / Fold change vs veh, RNF170 / RFU, ZNF28 / Fold change vs veh, ZNF28 / RFU, RNGTT / Fold change vs veh, RNGTT / RFU, OGT / Fold change vs veh, OGT / RFU, BRD1 / Fold change vs veh, BRD1 / RFU, MARS / Fold change vs veh, MARS / RFU, ZNF655 / Fold change vs veh, ZNF655 / RFU, FAHD1 / Fold change vs veh, FAHD1 / RFU, BDP1 / Fold change vs veh, BDP1 / RFU, LRRCC1 / Fold change vs veh, LRRCC1 / RFU, ARID1A / Fold change vs veh, ARID1A / RFU, ZNF146 / Fold change vs veh, ZNF146 / RFU, ZNF330 / Fold change vs veh, ZNF330 / RFU, GPN3 / Fold change vs veh, GPN3 / RFU, C9orf123 / Fold change vs veh, C9orf123 / RFU, N4BP2L2 / Fold change vs veh, N4BP2L2 / RFU, ARFIP1 / Fold change vs veh, ARFIP1 / RFU, FAM179B / Fold change vs veh, FAM179B / RFU, BCL10 / Fold change vs veh, BCL10 / RFU, UHRF1BP1L / Fold change vs veh, UHRF1BP1L / RFU, BET1 / Fold change vs veh, BET1 / RFU, CNOT2 / Fold change vs veh, CNOT2 / RFU, ZNF268 / Fold change vs veh, ZNF268 / Fold change vs veh, ZNF507 / RFU, DGCR2 / Fold change vs veh, DGCR2 / RFU, WDSUB1 / Fold change vs veh, WDSUB1 / Fold change vs veh, HSP90B1 /// MIR3652 / RFU, ADSS / Fold change vs veh, ADSS / RFU, GK / Fold change vs veh, GK / RFU, ZNF148 / Fold change vs veh, ZNF148 / RFU, TAF9 / Fold change vs veh, TAF9 / RFU, SLC1A5 / Fold change vs veh, SLC1A5 / RFU, SLMO2 / Fold change vs veh, SLMO2 / RFU, ABCC4 / Fold change vs veh, ABCC4 / RFU, LOC101060439 /// RAP1B / Fold change vs veh, LOC101060439 /// RAP1B / RFU, RFX7 / Fold change vs veh, RFX7 / RFU, GTPBP10 / Fold change vs veh, GTPBP10 / RFU, CNEP1R1 / Fold change vs veh, CNEP1R1 / RFU, BIVM-ERCC5 /// ERCC5 / Fold change vs veh, BIVM-ERCC5 /// ERCC5 / RFU, ILF3 / Fold change vs veh, ILF3 / RFU 11762660_at / Fold change /veh 11762660_at / RFU VCAN (11757783_s_at) / Fold change /veh VCAN (11757783_s_at) / RFU DDX43 (11728927_at) / Fold change /veh DDX43 (11728927_at) / RFU KRT8 (11758188_x_at) / Fold change /veh KRT8 (11758188_x_at) / RFU NKD1 (11759106_at) / Fold change /veh NKD1 (11759106_at) / RFU SRD5A1 (11742802_a_at) / Fold change /veh SRD5A1 (11742802_a_at) / RFU TPSAB1 /// TPSB2 (11721975_s_at) / Fold change /veh TPSAB1 /// TPSB2 (11721975_s_at) / RFU GSTM3 (11746129_a_at) / Fold change /veh GSTM3 (11746129_a_at) / RFU IL23R (11737362_x_at) / Fold change /veh IL23R (11737362_x_at) / RFU TMEM51 (11727254_a_at) / Fold change /veh TMEM51 (11727254_a_at) / RFU PIWIL2 (11732686_x_at) / Fold change /veh PIWIL2 (11732686_x_at) / RFU ORM1 (11744905_x_at) / Fold change /veh ORM1 (11744905_x_at) / RFU CCDC152 (11743942_at) / Fold change /veh CCDC152 (11743942_at) / RFU ECM1 (11717891_a_at) / Fold change /veh ECM1 (11717891_a_at) / RFU IL23R (11748794_a_at) / Fold change /veh IL23R (11748794_a_at) / RFU TNFAIP8L3 (11732012_x_at) / Fold change /veh TNFAIP8L3 (11732012_x_at) / RFU MBOAT4 (11741988_at) / Fold change /veh MBOAT4 (11741988_at) / RFU 11764193_at / Fold change /veh 11764193_at / RFU TMEM53 (11763286_at) / Fold change /veh TMEM53 (11763286_at) / RFU MAGEB2 (11727129_at) / Fold change /veh MAGEB2 (11727129_at) / RFU TMEM200A (11744735_a_at) / Fold change /veh TMEM200A (11744735_a_at) / RFU CCDC152 (11751479_a_at) / Fold change /veh CCDC152 (11751479_a_at) / RFU FAM211A (11726209_a_at) / Fold change /veh FAM211A (11726209_a_at) / RFU RGS16 (11746705_a_at) / Fold change /veh RGS16 (11746705_a_at) / RFU VCAN (11755009_s_at) / Fold change /veh VCAN (11755009_s_at) / RFU RHOB (11743442_s_at) / Fold change /veh RHOB (11743442_s_at) / RFU RGS16 (11720943_a_at) / Fold change /veh RGS16 (11720943_a_at) / RFU RGS16 (11720944_at) / Fold change /veh RGS16 (11720944_at) / RFU, VPS4B / Fold change vs veh, VPS4B / RFU, CREB1 / Fold change vs veh, CREB1 / RFU, DNAJC13 / Fold change vs veh, DNAJC13 / RFU, GNAQ / Fold change vs veh, GNAQ / RFU, CDK5R1 / Fold change vs veh, CDK5R1 / RFU, ZRANB3 / Fold change vs veh, ZRANB3 / RFU, CUL4A / Fold change vs veh, CUL4A / RFU, CCNY / Fold change vs veh, CCNY / RFU, UFL1 / Fold change vs veh, UFL1 / RFU, COG3 / Fold change vs veh, COG3 / RFU, DIAPH2 / Fold change vs veh, DIAPH2 / RFU, SKA2 / Fold change vs veh, SKA2 / RFU, AFF3 / Fold change vs veh, AFF3 / RFU, LMF1 / Fold change vs veh, LMF1 / RFU, IPO11 / Fold change vs veh, IPO11 / RFU, DFFB / Fold change vs veh, DFFB / RFU, FOXP1 / Fold change vs veh, FOXP1 / RFU, CARD8 / Fold change vs veh, CARD8 / RFU, STRN3 / Fold change vs veh, STRN3 / RFU, ADK / Fold change vs veh, ADK / RFU, RASSF2 / Fold change vs veh, RASSF2 / RFU, WIPF1 / Fold change vs veh, WIPF1 / RFU, LARP1B / Fold change vs veh, LARP1B / RFU, RASA1 / Fold change vs veh, RASA1 / RFU, RB1 / Fold change vs veh, RB1 / RFU, PPFIA1 / Fold change vs veh, PPFIA1 / RFU, MAT2A / Fold change vs veh, MAT2A / RFU, CCT5 / Fold change vs veh, CCT5 / RFU, WDR92 / Fold change vs veh, WDR92 / RFU, CUX1 / Fold change vs veh, CUX1 / RFU, TTC7A / Fold change vs veh, TTC7A / RFU, TMEM135 / Fold change vs veh, TMEM135 / RFU, DEPTOR / Fold change vs veh, DEPTOR / RFU, CPM / Fold change vs veh, CPM / RFU, DNAJB6 / Fold change vs veh, DNAJB6 / RFU, CACNA2D3 / Fold change vs veh, CACNA2D3 / RFU, DTX4 / Fold change vs veh, DTX4 / RFU, TFCP2 / Fold change vs veh, TFCP2 / RFU, GMCL1 /// GMCL1P1 / Fold change vs veh, GMCL1 /// GMCL1P1 / RFU, AEBP2 / Fold change vs veh, AEBP2 / RFU, SNHG1 /// SNORD22 /// SNORD25 /// SNORD26 /// SNORD27 /// SNORD28 /// SNORD29 /// SNORD31 / Fold change vs veh, SNHG1 /// SNORD22 /// SNORD25 /// SNORD26 /// SNORD27 /// SNORD28 /// SNORD29 /// SNORD31 / Fold change (Aza/veh), C12orf56 (ProbeSet 11735607_a_at) / Fold change (ACY-1035/veh), C12orf56 (ProbeSet 11735607_a_at) / Fold change (Aza/veh), FGFR1OP (ProbeSet 11751329_s_at) / Fold change (ACY-1035/veh), FGFR1OP (ProbeSet 11751329_s_at) / Fold change (Aza/veh), VPS36 (ProbeSet 11739960_a_at) / Fold change (ACY-1035/veh), VPS36 (ProbeSet 11739960_a_at) / RFU SYPL1 (11715823_x_at) / Fold change /veh SYPL1 (11715823_x_at) / RFU IGFBP7 (11715501_s_at) / Fold change /veh IGFBP7 (11715501_s_at) / RFU REEP3 (11722064_at) / Fold change /veh REEP3 (11722064_at) / RFU IGLL1 (11728026_x_at) / Fold change /veh IGLL1 (11728026_x_at): dose or concentration left out as unconfirmed
# Settings: ProbeSet 11725885_a_at; LIST B
smiles,measurement,value
Nc1ccc(-c2cccs2)cc1NC(=O)c1ccc2c(c1)cc(C1CC1)n2CCN1CCOCC1 [ACY-1035],"RFU, CNEP1R1",81.80 RFU
